Earlier results on twelve molecules are cited in paper PMC8448535 (Bioorganic & Medicinal Chemistry, 2021).

Structures can show the parent of a compound that is named as a salt.

Series [1] concerns recombinant-human ACE2 (rhACE2). The note with it: pIC50 of IC50 in mol/L.
Series [2] concerns recombinant-human ACE (rhACE). The note with it: pIC50 of IC50 in mol/L.
The test system of a further series is ACE2. The note with it: read-out: activity (inhibitory effect against ACE2).
For another series, the system named is furin. Particulars: database screening of pre-existing drugs.
The test system of the next series is cell viability. The note with it: in words.
The next series has as its system influenza virus H3N2. The note with it: H3N2, 10 μM, at 24 h, compared to control.

Turning to `CC(C)C[C@@H](N[C@@H](Cc1cncn1Cc1cc(Cl)cc(Cl)c1)C(=O)O)C(=O)O` [MLN-4760-R], the pIC50 was 8.9 ± 0.1 mol/L in series [1] and 4.4 ± 0.3 mol/L in series [2]. `CC(C)CC(N[C@@H](Cc1cncn1Cc1cc(Cl)cc(Cl)c1)C(=O)O)C(=O)O` (stereo partly drawn) [MLN-4760-S/R]: the pIC50 in series [1] is 8.5 ± 0.1 mol/L; in [2], 4.4 ± 0.2 mol/L. For the molecule `NCCNCCN1CC1` [N-(2-aminoethyl)-1-aziridineethanamine], the IC50 in the series on ACE2 was 57 ± 7 µM. Consider `Nc1nc(N)c2nc(CNc3ccc(C(=O)N[C@@H](CCC(=O)O)C(=O)O)cc3)cnc2n1` [aminopterin], for which the affinity for furin result in the series on furin is recorded as “good affinity”. With `CN(Cc1cc(Br)cc(Br)c1N)C1CCCCC1` [bromhexine], in the series on TMPRSS2, the “activity towards TMPRSS2” value is on record as “good activity”.

As to `CN(C)C(=O)COC(=O)Cc1ccc(OC(=O)c2ccc(NC(=N)N)cc2)cc1` [camostat mesylate], the “block of SARS-CoV from entering cells” value in the series on SARS-CoV is on record as 65%.

Take `N=C(N)c1cccc(C[C@H](NS(=O)(=O)c2cccc(-c3ccc(Cl)cc3Cl)c2)C(=O)N2CCC(CCN)CC2)c1` [compound 92]: the “effect on cell viability” value with cell viability is “little to no effect”. Besides, in the series on influenza virus H3N2, the “decrease in virus titres” value was 100 fold. Regarding `N=C(N)c1cccc(C[C@H](NS(=O)(=O)c2cccc(-c3ccc(Cl)cc3Cl)c2)C(=O)N2CCC(NC(=O)NC3CCCCC3)CC2)c1` [compound 114], the “effect on cell viability” value in the series with cell viability is given as “little to no effect”. On to `N=C(N)c1ccc(/N=N/Nc2ccc(C(=N)N)cc2)cc1` [diminazene], for which the affinity for furin result with furin is recorded as “good affinity”. Regarding `CN(Cc1cnc2nc(N)nc(N)c2n1)c1ccc(C(=O)N[C@@H](CCC(=O)O)C(=O)O)cc1` [methotrexate], the affinity for furin result with furin is “good affinity”. Regarding `COc1cc(C2Oc3cc([C@H]4Oc5cc(O)cc(O)c5C(=O)[C@@H]4O)ccc3OC2CO)ccc1O` (stereo partly drawn) [silybin], the affinity for furin entry in the series with furin is reported as “good affinity”. “angiotensin-III (RVYIHPF; Angiotensin 3; UniProt P01019 26-32, looked up) [Ang-III]”: the “vasopressor efficacy relative to Ang-II” value was 40%.
